pIC50: −log10 of the molar value. Structures can show the parent of a compound that is named as a salt.

This experiment deals with T1, human recombinant ENPP1 enzymes (Homo sapiens, UniProt P22413).
T1 construct: purchased R & D systems
T1 sequence (P22413 1-925): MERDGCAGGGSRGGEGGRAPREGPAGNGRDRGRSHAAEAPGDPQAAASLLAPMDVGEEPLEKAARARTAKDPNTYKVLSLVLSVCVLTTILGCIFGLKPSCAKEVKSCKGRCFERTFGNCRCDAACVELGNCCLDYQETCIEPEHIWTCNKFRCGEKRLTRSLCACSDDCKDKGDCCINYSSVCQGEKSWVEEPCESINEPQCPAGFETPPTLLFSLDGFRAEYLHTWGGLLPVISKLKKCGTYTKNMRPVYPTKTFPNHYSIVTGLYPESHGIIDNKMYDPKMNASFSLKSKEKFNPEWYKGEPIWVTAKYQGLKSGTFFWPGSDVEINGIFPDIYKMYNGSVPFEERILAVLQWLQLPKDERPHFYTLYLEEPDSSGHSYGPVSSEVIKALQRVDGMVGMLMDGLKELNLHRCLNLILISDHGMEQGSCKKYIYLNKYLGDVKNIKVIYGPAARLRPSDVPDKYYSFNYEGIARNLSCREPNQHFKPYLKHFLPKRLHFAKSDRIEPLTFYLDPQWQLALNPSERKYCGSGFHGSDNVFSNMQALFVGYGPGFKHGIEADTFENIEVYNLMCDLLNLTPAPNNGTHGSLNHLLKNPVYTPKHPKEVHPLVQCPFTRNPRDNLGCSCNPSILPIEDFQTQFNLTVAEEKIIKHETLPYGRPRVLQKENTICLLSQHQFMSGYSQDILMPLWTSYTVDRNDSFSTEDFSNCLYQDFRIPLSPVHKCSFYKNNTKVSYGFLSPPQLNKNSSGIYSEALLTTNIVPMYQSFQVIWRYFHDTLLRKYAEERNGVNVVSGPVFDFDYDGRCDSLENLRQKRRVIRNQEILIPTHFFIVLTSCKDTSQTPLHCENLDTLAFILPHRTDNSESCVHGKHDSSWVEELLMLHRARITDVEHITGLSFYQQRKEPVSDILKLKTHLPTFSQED
Nature of the experiment: ENPP1 Enzyme Assay with cGAMP Substrate (AMP-Glo). It is filed as biochemical. Conditions: human recombinant ENPP1, cGAMP 5 μM, 37° C. 90 minutes, AMP-Glo luminescence; read-out: Enzymatic activity (IC50). How it is done:
ENPP1 hydrolyzes nucleotides or nucleotide derivatives to produce nucleoside-5′-monophosphate and pyrophosphate. In addition, ENPP1 hydrolyzes 2′,3′-cGAMP to produce 5′-adenosine monophosphate (AMP) and 5′-guanosine monophosphate (GMP). AMP produced from the reaction is measured using the AMP-Glo® kit (Promega). The AMP-Glo® kit contains two reagents. The first reagent terminates the AMP-producing enzymatic reaction, removes ATP and converts the produced AMP into ADP. The second reagent converts ADP into ATP which is used to generate luminescence in the luciferase reaction. The amount of luminescence measured is proportional to the amount of AMP produced by ENPP1.
The final reaction solution contains 50 mM Tris (pH 8.5) buffer, 250 mM NaCl, 0.5 mM CaCl2), 1 μM ZnCl2, 5% glycerol and 1% DMSO. Serially diluted ENPP1 inhibitors (typically in the range of 10 μM to 0.5 nM) were pre-stored with human recombinant ENPP1 enzymes (R & D systems) at 3 ng/reaction and room temperature (RT) for 5 to 10 minutes. The reaction was initiated by addition of cGAMP (at a final concentration of 5 μM) and reacted at 37° C. for 90 minutes. At the end of the reaction, 10 μl of the AMP-Glo first reagent was added to stop the reaction and the result was stored at room temperature for 1 hour. After storage, 20 μl of an AMP detection solution (a mixture of AMP-Glo II reagent and Kinase-Glo at a ratio of 1:100) was added and stored at room temperature for 1 hour. Luminescence signals were measured using a Victor® plate reader (Perkin Elmer). The maximal activity control (containing enzymes and substrates in the presence of 1% DMSO; MAX) and the minimal activity control (containing substrates and 1% DMSO; MIN) were evaluated simultaneously. In each experiment, serially diluted reference ENPP1 inhibitors were tested as well. IC50, indicating % residual activity versus compound concentration was determined by fitting inhibition curves using the 3-parameter analysis of GraphPad Prism® software. Serially diluted samples of one compound were tested two or more times and an average IC50 of each compound was calculated.
As a reminder, the pIC50 is the negative decadic logarithm of the IC50, by convention in mol/L. On to `COc1ccc2c(c1)nnn2-c1ccc2c(c1)CN(S(N)(=O)=O)C2` [Example 94, 5-(5-methoxy-1H-benzo[d][1,2,3]triazol-1-yl)isoindoline-2-sulfonamide], for which the pIC50 was more than 6.00. For `CC(F)(F)c1ccc2c(c1)nnn2-c1ccc(CN)cc1` [Example 21], the pIC50 is less than 5.00. For `NCc1ccc(-n2nnc3cc(OC(F)F)ccc32)c(F)c1` [Example 24] the value was less than 5.00; for `COc1ccc2c(c1)nnn2-c1ccc(P(=O)(O)O)cc1` [Example 118], less than 5.00; for `NS(=O)(=O)NCc1ccc(-n2nnc3cc(OCF)ccc32)c(F)c1` [Example 88], less than 5.00.

With `CCOc1ccc2c(c1)nnn2-c1ccc(CN)cc1F` [Example 19], the pIC50 is less than 5.00.

Consider `NS(=O)(=O)NCc1ccc(-n2nnc3ccccc32)c(F)c1` [Example 56, N-(4-(1H-benzo[d][1,2,3]triazol-1-yl)-3-fluorobenzyl)sulfamide], for which the pIC50 was more than 6.00. For `COc1ccc2c(c1)nnn2-c1ccc(CNS(N)(=O)=O)cc1` [Example 51, N-(4-(5-methoxy-1H-benzo[d][1,2,3]triazol-1-yl)benzyl)sulfamide Hydrochloride] the value was more than 6.00; for `COc1cc2nnn(-c3ccc(CNS(N)(=O)=O)cc3)c2cc1C` [Example 69, N-(4-(5-methoxy-6-methyl-1H-benzo[d][1,2,3]triazol-1-yl)benzyl)sulfamide], 5.00 to 6.00. The same measure for `COc1ccc2c(c1)nnn2-c1ccc2c(c1)CNCC2` [Example 25, 7-(5-methoxy-1H-benzo[d][1,2,3]triazol-1-yl)-1,2,3,4-tetrahydroisoquinoline Hydrochloride]: less than 5.00. The same measure for `CCOc1ccc2c(c1)nnn2-c1ccc(CNS(N)(=O)=O)cc1F` [Example 76, N-(4-(5-ethoxy-1H-benzo[d][1,2,3]triazol-1-yl)-3-fluorobenzyl)sulfamide]: less than 5.00; for `COc1ccc2nn(Cc3ccc(CNS(N)(=O)=O)cc3)nc2c1` [Example 110, N-(4-((5-methoxy-2H-benzo[d][1,2,3]triazole-2-yl)benzyl)sulfamide Hydrochloride]: 5.00 to 6.00; for `COc1ccc2c(c1)nnn2-c1ccc(CNS(C)(=O)=O)cc1F` [Example 112, N-(3-fluoro-4-(5-methoxy-1H-benzo[d][1,2,3]triazol-1-yl)benzyl)methanesulfonamide]: less than 5.00. On to `NCc1ccc(-n2nnc3cc(OCF)ccc32)c(F)c1` [Example 23], for which the pIC50 was less than 5.00. For `COc1ccc2c(c1)nnn2-c1ccc2c(c1)CN(S(N)(=O)=O)CC2` [Example 97, 7-(5-methoxy-1H-benzo[d][1,2,3]triazol-1-yl)-3,4-dihydroisoquinoline-2(1H)sulfonamide] the value was more than 6.00; for `COc1ccc2c(c1)nnn2-c1ccc(CN(C)S(N)(=O)=O)cc1F` [Example 81, N-(3-fluoro-4-(5-methoxy-1H-benzo[d][1,2,3]triazol-1-yl)benzyl)-N-methylsulfamide], more than 6.00; for `COc1cccc2c1nnn2-c1ccc(CN)cc1` [Example 6, 4-(4-methoxy-1H-benzo[d][1,2,3]triazol-1-yl)phenyl)methanamine Hydrochloride], less than 5.00.

Take `COc1ccc2c(c1)nnn2-c1c(F)cc(CNS(N)(=O)=O)cc1F` [Example 64, N-(3,5-difluoro-4-(5-methoxy-1H-benzo[d][1,2,3]triazol-1-yl)-benzyl)sulfamide]: the pIC50 is more than 6.00.

As to `COc1ccc2c(c1)nnn2C1CCN(CCS(N)(=O)=O)CC1` [Example 44, 2-(4-(5-methoxy-1H-benzo[d][1,2,3]triazol-1-yl)piperidin-1-yl)ethane-1-sulfonamide], the pIC50 is more than 6.00.

For the molecule `COc1ccc2c(c1)nnn2-c1ccc(NS(N)(=O)=O)cc1` [Example 48, N-(4-(5-methoxy-1H-benzo[d][1,2,3]triazol-1-yl)phenyl)sulfamide Hydrochloride], the pIC50 was more than 6.00. For the molecule `COc1ccc2c(c1)nnn2-c1ccc(CNS(N)(=O)=O)cc1Cl` [Example 59, N-(3-chloro-4-(5-methoxy-1H-benzo[d][1,2,3]triazol-1-yl)benzyl)sulfamide], the pIC50 is more than 6.00. `COc1ccc2c(c1)nnn2-c1cccc(CCNS(N)(=O)=O)c1` [Example 72, N-(3-(5-methoxy-1H-benzo[d][1,2,3]triazol-1-yl)phenethyl)sulfamide]: the pIC50 is more than 6.00. The same measure for `COc1ccc2c(c1)nnn2C1CCNCC1` [Example 1, 5-methoxy-1-(piperidin-4-yl)-1H-benzo[d][1,2,3]triazole Hydrochloride]: less than 5.00; for `COc1ccc2c(c1)nnn2C1CCC(CNS(N)(=O)=O)C1` (stereo not shown) [Example 41, N-((3-(5-methoxy-1H-benzo[d][1,2,3]triazol-1-yl)cyclopentyl)methyl)sulfamide]: more than 6.00. For `COc1ccc2c(c1)nnn2-c1ccc(CP(=O)(O)O)cc1` [Example 119] the value was more than 6.00; for `CC(F)(F)c1ccc2c(c1)nnn2-c1ccc(CN)cc1F` [Example 22], less than 5.00.

As for `COc1cc2nnn(-c3ccc(CNS(N)(=O)=O)cc3)c2cc1OC` [Example 55, N-(4-(5,6-dimethoxy-1H-benzo[d][1,2,3]triazol-1-yl)benzyl)sulfamide], the pIC50 is more than 6.00. Take `COc1ccc2c(c1)nnn2C1CCN(CCS(=O)(=O)F)CC1` [Example 111, 2-(4-(5-methoxy-1H-benzo[d][1,2,3]triazol-1-yl)piperidin-1-yl)ethane-1-sulfonyl Fluoride]: the pIC50 is less than 5.00. Turning to `COc1ccc2nnn(-c3ccc(CN)cc3)c2c1` [Example 7, 4-(6-methoxy-1H-benzo[d][1,2,3]triazol-1-yl)phenyl)methanamine Hydrochloride], the pIC50 is less than 5.00. For `NCc1ccc(-n2nnc3ccccc32)cc1` [Example 5, 4-(1H-benzo[d][1,2,3]triazol-1-yl)phenyl)methanamine Hydrochloride] the value was more than 6.00; for `COc1cccc2nnn(-c3ccc(CN)cc3)c12` [Example 8, 4-(7-methoxy-1H-benzo[d][1,2,3]triazol-1-yl)phenyl)methanamine Hydrochloride], less than 5.00; for `COc1cc2nnn(-c3ccc(CNS(N)(=O)=O)cc3)c2cc1F` [Example 92, N-(4-(6-fluoro-5-methoxy-1H-benzo[d][1,2,3]triazol-1-yl)benzyl)sulfamide], more than 6.00. As for `NS(=O)(=O)NCc1cc(F)c(-n2nnc3ccccc32)c(F)c1` [Example 58, N-(4-(1H-benzo[d][1,2,3]triazol-1-yl)-3,5-difluorobenzyl)sulfamide], the pIC50 is more than 6.00. For `COc1cc2nnn(-c3cc(F)c(CN)cc3F)c2cc1OC` [Example 28], the pIC50 was less than 5.00. On to `COc1ccc2nnn(-c3ccc(CNS(N)(=O)=O)cc3)c2c1` [Example 52, N-(4-(6-methoxy-H-benzo[d][1,2,3]triazol-1-yl)benzyl)sulfamide], for which the pIC50 was more than 6.00.

Regarding `NS(=O)(=O)NCc1ccc(-n2nnc3cc(OC(F)F)ccc32)c(F)c1` [Example 91], the pIC50 is more than 6.00.

On to `COc1ccc2c(c1)nnn2-c1cc(C)sc1CN` [Example 31, 3-(5-methoxy-1H-benzo[d][1,2,3]triazol-1-yl)-5-methylthiophen-2-yl)methanamine Hydrochloride], for which the pIC50 is less than 5.00.

Values taken from patent US20240116882A1, “NOVEL BENZOTRIAZOLE DERIVATIVE HAVING INHIBITORY ACTIVITY AGAINST ECTONUCLEOTIDE PYROPHOSPHATASE-PHOSPHODIESTERASE, AND USE THEREOF” (TXINNO BIOSCIENCE INC., priority 2021, published 2024).
